Results: US9181259B2 (LEO PHARMA A/S, priority 2012, dated 2015)
Structures can show the parent of a compound that is named as a salt.

molecular target: T1, NK1 receptor (Homo sapiens, UniProt P25103); assay: NK1 receptor mediated intracellular [Ca2+] mobilization in U251 MG cells using FLIPR; format: cell-based; settings: antagonist potency against Substance P (EC80), normalized to 100 nM Aprepitant, read-out: U251MG (FLIPR pIC50) (converted)
T1 construct: Measurement of NK1 Receptor Mediated Intracellular [Ca^2+]; Mobilization in U251 MG Cells Using FLIPR; endogenous in cells; host or cells: U251 MG cells
T1 sequence (P25103 whole entry): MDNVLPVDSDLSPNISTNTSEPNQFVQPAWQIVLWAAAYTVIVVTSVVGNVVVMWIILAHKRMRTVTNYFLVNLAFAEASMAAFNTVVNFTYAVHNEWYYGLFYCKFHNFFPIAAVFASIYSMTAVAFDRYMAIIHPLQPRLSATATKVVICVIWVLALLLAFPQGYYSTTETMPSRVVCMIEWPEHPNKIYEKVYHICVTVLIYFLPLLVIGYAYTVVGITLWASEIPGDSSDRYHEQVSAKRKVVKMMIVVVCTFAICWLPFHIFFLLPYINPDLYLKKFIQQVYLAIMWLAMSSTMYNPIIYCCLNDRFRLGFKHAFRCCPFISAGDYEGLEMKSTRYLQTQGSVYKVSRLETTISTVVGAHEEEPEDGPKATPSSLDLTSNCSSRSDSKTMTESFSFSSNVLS
Experimental: Measurement of NK1 Receptor Mediated Intracellular [Ca^2+] Mobilization in U251 MG Cells Using FLIPR
U251 MG cells were seeded into black walled clear-bottom 384-well plates (Greiner Bio-One GmbH, Frickenhausen, Germany) at a density of 15,000 cells/well in 50 μl culture medium and cultured overnight in a 37° C. 5% CO2 incubator. The cells were then loaded with the calcium sensitive dye Fluo-4 (Invitrogen) at 1 μM in buffer, containing 0.04%
Pluronic F-127 (Sigma-Aldrich), and 2.5 mM probenecid (Sigma-Aldrich) for 60 min in a humidified atmosphere of 5% CO2. Thereafter, cells were washed three times in washing buffer containing 20 mM HEPES and 2.5 mM probenecid pH 7.3. Serial dilutions of test compounds in assay buffer containing 2% dimethyl sulfoxide (final concentration in the cell plate is 0.5% DMSO) and/or agonist were then automatically pipetted into each test well, and the peak fluorescence intensity was recorded (lex, 488 nm; lem, 540 nm) by the FLIPR instrument (Molecular Devices) for approximately 5 min. To measure antagonist potency, cell plates were first incubated with the test compound and intracellular fluorescence recorded for 5 minutes to check a potential agonist effect of the test compound. Cell plates were quickly removed from the FLIPR instrument and incubated for additional 10 minutes at 37° C. before being moved back to the FLIPR instrument for Substance P (EC80) addition. The response was measured as the peak relative fluorescence change after agonist addition.
The IC50 value is defined as the molar concentration of a test compound that produces a response midway between the fitted top and the fitted bottom. pIC50=−log IC50
Formula is listed as follows: Fit(% Effect calculated)=(A+((B−A)/(1+((C/X)^D)))) • A: bottom value • B: top value • C: […] • D: Hill slope coefficient
Ref: Sullivan E, Tucker E M, and Dale I L. Measurement of [Ca^2+] using the Fluorometric Imaging Plate Reader (FLIPR). Methods Mol Biol 114:125-133, 1999.
Compounds of the present invention were tested according to example 120.

| Structure (SMILES) | IC50 |
| --- | --- |
| Cc1ccccc1C1C2CC(CO)CN2CCN1C(=O)N(C)Cc1cc(C(F)(F)F)cc(C(F)(F)F)c1 (single isomer, unassigned) [Compound 28, N-{[3,5-bis(trifluoromethyl)phenyl]methyl}-7-(hydroxymethyl)-N-methyl-1-(2-methylphenyl)-octahydropyrrolo[1,2-a]piperazine-2-carboxamide; methanesulfonic acid salt] | 0.912 nM |
| Cc1ccccc1C1C2CC(CN3CCCC3)C(=O)N2CCN1C(=O)N(C)Cc1cc(C(F)(F)F)cc(C(F)(F)F)c1 (single isomer, unassigned) [Compound 31, N-{[3,5-bis(trifluoromethyl)phenyl]methyl}-N-methyl-1-(2-methylphenyl)-6-oxo-7-(pyrrolidin-1-ylmethyl)-octahydropyrrolo[1,2-a]piperazine-2-carboxamide] | 0.513 nM |
| C=C1CC2C(c3ccccc3C)N(C(=O)N(C)Cc3cc(C(F)(F)F)cc(C(F)(F)F)c3)CCN2C1=O (single isomer, unassigned) [Compound 32, N-{[3,5-bis(trifluoromethyl)phenyl]methyl}-N-methyl-7-methylidene-1-(2-methylphenyl)-6-oxo-octahydropyrrolo[1,2-a]piperazine-2-carboxamide] | 0.437 nM |
| Cc1ccccc1C1C2CC(CN3CCOCC3)C(=O)N2CCN1C(=O)N(C)Cc1cc(C(F)(F)F)cc(C(F)(F)F)c1 (single isomer, unassigned) [Compound 39] | 2.88 nM |
| Cc1ccccc1C1C2CC(CN3CCOCC3)C(=O)N2CCN1C(=O)N(C)Cc1cc(C(F)(F)F)cc(C(F)(F)F)c1 (single isomer, unassigned) [Compound 40] | 7.76 nM |
| Cc1ccccc1C1C2CC3(CCN(C)CC3)C(=O)N2CCN1C(=O)N(C)Cc1cc(C(F)(F)F)cc(C(F)(F)F)c1 (single isomer, unassigned) [Compound 46, N-{[3,5-bis(trifluoromethyl)phenyl]methyl}-N,1-dimethyl-4′-(2-methylphenyl)-1′-oxo-hexahydro-1′H-spiro[piperidine-4,2′-pyrrolo[1,2-a]piperazine]-5′-carboxamide] | 4.57 nM |
| Cc1ccccc1C1C2CC(CO)CN2CCN1C(=O)N(C)Cc1cc(C(F)(F)F)cc(C(F)(F)F)c1 (single isomer, unassigned) [Compound 48, N-{[3,5-bis(trifluoromethyl)phenyl]methyl}-7-(hydroxymethyl)-N-methyl-1-(2-methylphenyl)-octahydropyrrolo[1,2-a]piperazine-2-carboxamide] | 0.224 nM |
| Cc1ccccc1C1C2CC(CN3CCOCC3)C(=O)N2CCN1C(=O)N(C)Cc1cc(C(F)(F)F)cc(C(F)(F)F)c1 (single isomer, unassigned) [Compound 51] | 0.12 nM |
| Cc1ccccc1C1C2CCCN2CCN1C(=O)N(C)Cc1cc(C(F)(F)F)cc(C(F)(F)F)c1 (single isomer, unassigned) [Compound 61, N-{[3,5-bis(trifluoromethyl)phenyl]methyl}-N-methyl-1-(2-methylphenyl)-octahydropyrrolo[1,2-a]piperazine-2-carboxamide] | > 100 nM |
| Cc1ccccc1C1C2CCCN2CCN1C(=O)N(C)Cc1cc(C(F)(F)F)cc(C(F)(F)F)c1 (single isomer, unassigned) [Compound 62, N-{[3,5-bis(trifluoromethyl)phenyl]methyl}-N-methyl-1-(2-methylphenyl)-octahydropyrrolo[1,2-a]piperazine-2-carboxamide] | 0.955 nM |
| Cc1ccccc1C1C2CCCN2CCN1C(=O)N(C)[C@H](C)c1cc(C(F)(F)F)cc(C(F)(F)F)c1 (single isomer, unassigned) [Compound 64] | 42.7 nM |
| Cc1ccccc1C1C2CC(CCO)(CCO)CN2CCN1C(=O)N(C)Cc1cc(C(F)(F)F)cc(C(F)(F)F)c1 (single isomer, unassigned) [Compound 65, N-{[3,5-bis(trifluoromethyl)phenyl]methyl}-7,7-bis(2-hydroxyethyl)-N-methyl-1-(2-methylphenyl)-octahydropyrrolo[1,2-a]piperazine-2-carboxamide] | 30.2 nM |
| Cc1ccccc1C1C2CC(CN3CCOCC3)C(=O)N2CCN1C(=O)N(C)[C@H](C)c1cc(C(F)(F)F)cc(C(F)(F)F)c1 (single isomer, unassigned) [Compound 71] | 28.2 nM |
| Cc1ccccc1C1C2CC(CN3CCOCC3)C(=O)N2CCN1C(=O)N(C)[C@H](C)c1cc(C(F)(F)F)cc(C(F)(F)F)c1 (single isomer, unassigned) [Compound 72] | 8.13 nM |
| Cc1ccccc1C1C2CC(C)(C(=O)O)C(=O)N2CCN1C(=O)N(C)Cc1cc(C(F)(F)F)cc(C(F)(F)F)c1 (stereo not drawn) [Compound 8, 2-({[3,5-bis(trifluoromethyl)phenyl]methyl}(methyl)carbamoyl)-7-methyl-1-(2-methylphenyl)-6-oxo-octahydropyrrolo[1,2-a]piperazine-7-carboxylic acid] | 61.7 nM |
| COC(=O)C1(C)CC2C(c3ccccc3C)N(C(=O)N(C)Cc3cc(C(F)(F)F)cc(C(F)(F)F)c3)CCN2C1=O (stereo not drawn) [Compound 11, Methyl 2-({[3,5-bis(trifluoromethyl)phenyl]methyl}(methyl)carbamoyl)-7-methyl-1-(2-methylphenyl)-6-oxo-octahydropyrrolo{1,2-a}piperazine-7-carboxylate] | 0.813 nM |

The remaining lines, values ahead:

| IC50 | Structure (SMILES) |
| --- | --- |
| 15.5 nM | Cc1ccccc1C1C2CC(CCO)C(=O)N2CCN1C(=O)N(C)C(CCO)c1cc(C(F)(F)F)cc(C(F)(F)F)c1 (single isomer, unassigned) [Compound 34, N-{1-[3,5-bis(trifluoromethyl)phenyl]-3-hydroxypropyl}-7-(2-hydroxyethyl)-N-methyl-1-(2-methylphenyl)-6-oxo-octahydropyrrolo[1,2-a]piperazine-2-carboxamide] |
| 0.2 nM | Cc1ccccc1C1C2CC(CCO)C(=O)N2CCN1C(=O)N(C)C(CCO)c1cc(C(F)(F)F)cc(C(F)(F)F)c1 (single isomer, unassigned) [Compound 35, N-{1-[3,5-bis(trifluoromethyl)phenyl]-3-hydroxypropyl}-7-(2-hydroxyethyl)-N-methyl-1-(2-methylphenyl)-6-oxo-octahydropyrrolo[1,2-a]piperazine-2-carboxamide] |
| 2.45 nM | Cc1ccccc1C1C2CC(CCO)(CCO)C(=O)N2CCN1C(=O)N(C)[C@H](C)c1cc(C(F)(F)F)cc(C(F)(F)F)c1 (single isomer, unassigned) [Compound 53] |
| 1.51 nM | Cc1ccccc1C1C2CC(CO)C(=O)N2CCN1C(=O)N(C)[C@H](C)c1cc(C(F)(F)F)cc(C(F)(F)F)c1 (single isomer, unassigned) [Compound 57] |
| 11.5 nM | Cc1ccccc1C1C2CC(CO)C(=O)N2CCN1C(=O)N(C)[C@H](C)c1cc(C(F)(F)F)cc(C(F)(F)F)c1 (single isomer, unassigned) [Compound 58] |
| 60.3 nM | Cc1ccccc1C1C2CC(CCO)(CCO)CN2CCN1C(=O)N(C)[C@H](C)c1cc(C(F)(F)F)cc(C(F)(F)F)c1 (single isomer, unassigned) [Compound 59] |
| 0.204 nM | Cc1ccccc1C1C2CC(CO)CN2CCN1C(=O)N(C)[C@H](C)c1cc(C(F)(F)F)cc(C(F)(F)F)c1 (single isomer, unassigned) [Compound 67] |
| 4.47 nM | Cc1ccccc1C1C2CC(CO)CN2CCN1C(=O)N(C)[C@H](C)c1cc(C(F)(F)F)cc(C(F)(F)F)c1 (single isomer, unassigned) [Compound 68] |
| 0.214 nM | Cc1ccccc1C1C2CC(CO)CN2CCN1C(=O)N(C)[C@H](C)c1cc(C(F)(F)F)cc(C(F)(F)F)c1 (single isomer, unassigned) [Compound 69] |
| 66.1 nM | Cc1ccccc1C1C2CC(CO)CN2CCN1C(=O)N(C)[C@H](C)c1cc(C(F)(F)F)cc(C(F)(F)F)c1 (single isomer, unassigned) [Compound 70] |
| 0.107 nM | Cc1ccccc1C1C2CC(CN3CCOCC3)C(=O)N2CCN1C(=O)N(C)[C@H](C)c1cc(C(F)(F)F)cc(C(F)(F)F)c1 (single isomer, unassigned) [Compound 73] |
| 0.0891 nM | Cc1ccccc1C1C2CC(CN3CCOCC3)C(=O)N2CCN1C(=O)N(C)[C@H](C)c1cc(C(F)(F)F)cc(C(F)(F)F)c1 (single isomer, unassigned) [Compound 74] |
| 0.12 nM | Cc1ccccc1[C@H]1[C@@H]2CC(CCO)(CCO)C(=O)N2CCN1C(=O)N(C)C(CCO)c1cc(C(F)(F)F)cc(C(F)(F)F)c1 (single isomer, unassigned) [Compound 81] |
| 0.112 nM | Cc1ccccc1[C@H]1[C@@H]2CC(CCO)(CCO)C(=O)N2CCN1C(=O)N(C)C(CCO)c1cc(C(F)(F)F)cc(C(F)(F)F)c1 (single isomer, unassigned) [Compound 82] |
